From patent publication US20180244625A1, “FUNGICIDAL COMPOSITIONS” (Syngenta Participations AG, priority 2015, published 2018)
Like-named read-outs stand apart in the source and are kept apart here.

Tested on: Uncinula necator
Assay: Uncinula necator/Grape (powdery mildew on grape), preventive spray test on grape seedlings
Type: in vivo
Details: Erysiphe necator
Description: A synergistic effect exists whenever the action of an active ingredient combination is greater than the sum of the actions of the individual components. The action to be expected E for a given active ingredient combination obeys the so-called COLBY formula and can be calculated as follows (COLBY, S. R. “Calculating synergistic and antagonistic responses of herbicide combination”, Weeds, Vol. 15, pages 20-22; 1967): ppm=milligrams of active ingredient (=a.i.) per liter of spray mixture X=% action by active ingredient (A) using p ppm of active ingredient Y=% action by active ingredient (B) using q ppm of active ingredient. According to COLBY, the expected (additive) action of active ingredients (A)+(B) using p+q ppm of active ingredient is [formula] If the action actually observed (O) is greater than the expected action (E), then the action of the combination is super-additive, i.e. there is a synergistic effect. In mathematical terms, synergism corresponds to a positive value for the difference of (O-E). In the case of purely complementary addition of activities (expected activity), said difference (O-E) is zero. A negative value of said difference (O-E) signals a loss of activity compared to the expected activity. Uncinula necator/Grape (Powdery Mildew on Grape) Five-week-old grape seedlings cv. Gutedel were treated with the formulated testcompound in a spray chamber. One day after application grape plants were inoculated by shaking plants infected with grape powdery mildew above the test plants. After an incubation period of 7 days at 26° C. and 60% r. h. under a light regime of 14/10 h (light/dark) the disease incidence was assessed.

Q: How did the inhibition at 0.1 µg/mL (168 h, Compound 1.001 0.1 mg/l alone, grape seedlings cv. Gutedel, 7 days after inoculation) turn out when CON(C(=O)c1cn(C)nc1C(F)F)C(C)Cc1c(Cl)cc(Cl)cc1Cl (stereo not shown) [Compound 1.001, 3-(difluoromethyl)-N-methoxy-1-methyl-N-[1-methyl-2-(2,4,6-trichlorophenyl)ethyl]pyrazole-4-carboxamide] was run?
A: Its inhibition at 0.1 µg/mL is 90.4%.

Q: What about the inhibition at 10 pg/mL (Compound 1.001 0.00001 mg/l alone, read-out: Compound 1.001 inhibition (%)) of the same compound?
A: Its inhibition at 10 pg/mL is 0%.

Q: And the inhibition at 0.0001 µg/mL (Compound 1.001 0.0001 mg/l alone, read-out: Compound 1.001 inhibition (%))?
A: The inhibition at 0.0001 µg/mL was 0%.

Q: And the inhibition at 0.001 µg/mL (Compound 1.001 0.001 mg/l alone, read-out: Compound 1.001 inhibition (%))?
A: The inhibition at 0.001 µg/mL was 1.7%.

Q: And the inhibition at 0.01 µg/mL (Compound 1.001 0.01 mg/l alone, read-out: Compound 1.001 inhibition (%))?
A: Its inhibition at 0.01 µg/mL is 12.9%.

Q: How did the inhibition at 1 pg/mL (Flutianil 0.000001 mg/l alone) turn out when COc1ccccc1N1CCS/C1=C(/C#N)Sc1cc(C(F)(F)F)ccc1F [Flutianil, (2Z)-{[2-fluoro-5-(trifluoromethyl)phenyl]sulfanyl}[3-(2-methoxyphenyl)-1,3-thiazolidin-2-ylidene]acetonitrile] was run?
A: Its inhibition at 1 pg/mL is 0%.

Q: What about the inhibition at 10 pg/mL (Flutianil 0.00001 mg/l alone, read-out: Flutianil Inhibition (%)) of the same compound?
A: Its inhibition at 10 pg/mL is 1.3%.

Q: And the inhibition at 0.0001 µg/mL (Flutianil 0.0001 mg/l alone, read-out: Flutianil Inhibition (%))?
A: Its inhibition at 0.0001 µg/mL is 1%.

Q: And the inhibition at 0.001 µg/mL (Flutianil 0.001 mg/l alone, read-out: Flutianil Inhibition (%))?
A: Its inhibition at 0.001 µg/mL is 26.8%.

Q: What about the inhibition at 0.01 µg/mL (Flutianil 0.01 mg/l alone, read-out: Flutianil Inhibition (%)) of the same compound?
A: Its inhibition at 0.01 µg/mL is 100%.
